Experimental data published in patent US9163021B2, “Pyrrolo[3,2-c]pyridine tropomyosin-related kinase inhibitors” (Pfizer Limited, priority 2012, dated 2015).

Biological target: TRKA (Homo sapiens (Human), UniProt P04629)
Assay: Isolated TRK enzyme assay (HTRF KinEASE-TK), PV3144 TrkA enzyme assay
Assay type: biochemical
Conditions: arithmetic mean where more than one reading
Method: Isolated TRK Enzyme assays use the HTRF KinEASE-TK kit (Cisbio Cat#62TK0PEJ) with recombinant His-tagged cytoplasmic domains of each TRK receptor sourced from Invitrogen (see table below). This activity-assay measures the phosphorylation of tyrosine residues within a substrate from the HTRF kit which has been validated by Cisbio for a variety of tyrosine kinases including the TRK receptors.
0.5 mM stock solutions of test compounds are prepared and serially diluted in 100% DMSO. A standard curve using the compound of Example 135 disclosed in WO2005/116035 of 150 uM is also prepared on each test plate. High percentage effect (HPE) is defined by 150 uM (using the compound of Example 135 as disclosed in WO2005/116035) and 0% effect (ZPE) is defined by 100% DMSO. Greiner low volume black plates containing 0.2 ul of serially diluted compound, standard and HPE/ZPE are created using the Bravo nanoliter dispenser.
1× enzyme buffer is prepared from 5× Enzymatic Buffer from the Cisbio KinEASE TK kit using MilliQ water. The buffer is then supplemented with 10 mM MgCI and 2 mM DTT (both from Sigma). In the case of TRKB, the buffer is also supplemented with 125 nM Supplement Enzymatic Buffer (SEB) from the Cisbio kit.
2× FAC of enzyme and 2× FAC ATP diluted in 1× complete enzyme buffer is incubated at room temperature for 20 minutes to preactivate the enzyme. Following this preactivation step, 5 ul/well of enzyme+ATP mix is added using a Multidrop Micro to the assay plate, spotted with 0.2 ul 100% DMSO compound. This is left for 20 mins at room temperature before adding 5 ul of 2 uM TK-substrate-Biotin (from the Cisbio kit) diluted in 1× enzyme buffer (1 uM FAC) using the Multidrop Micro. The reaction is incubated at room temperature for the optimized assay reaction time (see table). The reaction is stopped by adding 10 ul/well HTRF Detection Buffer containing 0.25 uM Streptavidin-XL665 (0.125 uM FAC) and 1:200 TK Antibody-Cryptate using a Multidrop.
After the Detection Reagent addition, plates are covered and incubated at room temperature for 60 minutes. HTRF signal is read using an Envision reader, measured as a ratio of emissions at two different wavelengths, 620 nm and 665 nm. […] Test compound data are expressed as percentage inhibition defined by HPE and ZPE values for each plate. Percentage inhibition in the presence of test compound is plotted against compound concentration on a log scale to determine an IC50 from the resultant sigmoid curve.
Where more than one reading was taken, the arithmetic mean is presented.

Sequence of TRKA (P04629 441-796): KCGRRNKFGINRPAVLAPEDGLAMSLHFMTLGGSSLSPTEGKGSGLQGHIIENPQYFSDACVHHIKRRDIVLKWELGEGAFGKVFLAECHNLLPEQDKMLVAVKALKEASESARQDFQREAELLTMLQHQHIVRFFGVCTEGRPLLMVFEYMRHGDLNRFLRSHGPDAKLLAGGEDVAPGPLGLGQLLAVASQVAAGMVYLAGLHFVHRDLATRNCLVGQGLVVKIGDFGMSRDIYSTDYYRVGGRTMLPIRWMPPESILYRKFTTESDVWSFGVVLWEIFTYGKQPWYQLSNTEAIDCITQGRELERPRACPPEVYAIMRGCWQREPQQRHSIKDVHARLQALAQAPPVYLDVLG

Structure (SMILES) | IC50
Cc1cc(C(F)(F)F)nn1CC(=O)Nc1cncc(C(=O)c2cn(C(C)CO)c3c(F)cncc23)c1 (single isomer, unassigned) [Example 228, N-(5-{[7-fluoro-1-(1-hydroxypropan-2-yl)-1H-pyrrolo[3,2-c]pyridin-3-yl]carbonyl}pyridin-3-yl)-2-[5-methyl-3-(trifluoromethyl)-1H-pyrazol-1-yl]acetamide] | 18.5 nM
CC(CO)n1cc(C(=O)c2cc(NC(=O)Cc3cccc(C(F)(F)F)c3)ccn2)c2cnccc21 (single isomer, unassigned) [Example 229, N-(2-{[1-(1-hydroxypropan-2-yl)-1H-pyrrolo[3,2-c]pyridin-3-yl]carbonyl}pyridin-4-yl)-2-[3-(trifluoromethyl)phenyl]acetamide] | 200 nM
Cc1cc(C(F)(F)F)nn1CC(=O)Nc1cncc(C(=O)c2cn(C(C)(C)CO)c3c(F)cncc23)c1 [Example 1, N-{5-[7-Fluoro-1-(2-hydroxy-1,1-dimethyl-ethyl)-1H-pyrrolo[3,2-c]pyridine-3-carbonyl]-pyridin-3-yl}-2-(5-methyl-3-trifluoromethyl-pyrazol-1-yl)-acetamide] | 6.32 nM
CC(C)(CO)n1cc(C(=O)c2cncc(NC(=O)Cn3ccc(C4CC4)n3)c2)c2cncc(F)c21 [Example 2, 2-(3-Cyclopropyl-pyrazol-1-yl)-N-{5-[7-fluoro-1-(2-hydroxy-1,1-dimethyl-ethyl)-1H-pyrrolo[3,2-c]pyridine-3-carbonyl]-pyridin-3-yl}-acetamide] | 5.58 nM
CC(C)(CO)n1cc(C(=O)c2cncc(NC(=O)Cc3ccc(Cl)cn3)c2)c2cncc(F)c21 [Example 3, 2-(5-Chloro-pyridin-2-yl)-N-{5-[7-fluoro-1-(2-hydroxy-1,1-dimethyl-ethyl)-1H-pyrrolo[3,2-c]pyridine-3-carbonyl]-pyridin-3-yl}-acetamide] | 7.85 nM
CC(C)(CO)n1cc(C(=O)c2cncc(NC(=O)Cn3cc(C(F)(F)F)cn3)c2)c2cncc(F)c21 [Example 4, N-{5-[7-Fluoro-1-(2-hydroxy-1,1-dimethyl-ethyl)-1H-pyrrolo[3,2-c]pyridine-3-carbonyl]-pyridin-3-yl}-2-(4-trifluoromethyl-pyrazol-1-yl)-acetamide] | 5.33 nM
CC(C)(CO)n1cc(C(=O)c2cncc(NC(=O)Cc3cccc(C(F)(F)F)c3)c2)c2cncc(F)c21 [Example 5, N-{5-[7-Fluoro-1-(2-hydroxy-1,1-dimethyl-ethyl)-1H-pyrrolo[3,2-c]pyridine-3-carbonyl]-pyridin-3-yl}-2-(3-trifluoromethyl-phenyl)-acetamide] | 4.41 nM
CC(C)(CO)n1cc(C(=O)c2cncc(NC(=O)Cc3ccc(C(F)(F)F)cc3)c2)c2cncc(F)c21 [Example 7, N-{5-[7-Fluoro-1-(2-hydroxy-1,1-dimethyl-ethyl)-1H-pyrrolo[3,2-c]pyridine-3-carbonyl]-pyridin-3-yl}-2-(4-trifluoromethyl-phenyl)-acetamide] | 6.61 nM
CC(C)(CO)n1cc(C(=O)c2cncc(NC(=O)Cc3ccc(Cl)cn3)c2)c2cnccc21 [Example 8, 2-(5-Chloro-pyridin-2-yl)-N-{5-[1-(2-hydroxy-1,1-dimethyl-ethyl)-1H-pyrrolo[3,2-c]pyridine-3-carbonyl]-pyridin-3-yl}-acetamide] | 38.5 nM
CC(C)(CO)n1cc(C(=O)c2cc(NC(=O)Cc3ccc(C#N)cc3)ccn2)c2cnccc21 [Example 9, 2-(4-cyanophenyl)-N-(2-{[1-(1-hydroxy-2-methylpropan-2-yl)-1H-pyrrolo[3,2-c]pyridin-3-yl]carbonyl}pyridin-4-yl)acetamide] | 97.8 nM
CC(C)(CO)n1cc(C(=O)c2cc(NC(=O)Cn3ccc(C(F)(F)F)n3)ccn2)c2cnccc21 [Example 10, N-(2-{[1-(1-hydroxy-2-methylpropan-2-yl)-1H-pyrrolo[3,2-c]pyridin-3-yl]carbonyl}pyridin-4-yl)-2-[3-(trifluoromethyl)-1H-pyrazol-1-yl]acetamide] | 14 nM
CC(C)(CO)n1cc(C(=O)c2cncc(NC(=O)Cn3cc(C(F)(F)F)nn3)c2)c2cnccc21 [Example 13, N-(5-{[1-(1-hydroxy-2-methylpropan-2-yl)-1H-pyrrolo[3,2-c]pyridin-3-yl]carbonyl}pyridin-3-yl)-2-[4-(trifluoromethyl)-1H-1,2,3-triazol-1-yl]acetamide] | 9.86 nM
CC(C)c1cn(CC(=O)Nc2cncc(C(=O)c3cn(C(C)(C)CO)c4ccncc34)c2)nn1 [Example 14, N-(5-{[1-(1-hydroxy-2-methylpropan-2-yl)-1H-pyrrolo[3,2-c]pyridin-3-yl]carbonyl}pyridin-3-yl)-2-[4-(propan-2-yl)-1H-1,2,3-triazol-1-yl]acetamide] | 9.89 nM
CC(C)(CO)n1cc(C(=O)c2cncc(NC(=O)Cc3ccc(F)cn3)c2)c2cnccc21 [Example 16, 2-(5-fluoropyridin-2-yl)-N-(5-{[1-(1-hydroxy-2-methylpropan-2-yl)-1H-pyrrolo[3,2-c]pyridin-3-yl]carbonyl}pyridin-3-yl)acetamide] | 18.2 nM
Cc1oc(C2CC2)nc1CC(=O)Nc1cncc(C(=O)c2cn(C(C)C)c3ccncc23)c1 [Example 19, 2-(2-cyclopropyl-5-methyl-1,3-oxazol-4-yl)-N-(5-{[1-(propan-2-yl)-1H-pyrrolo[3,2-c]pyridin-3-yl]carbonyl}pyridin-3-yl)acetamide] | 26.4 nM
CC(C)n1cc(C(=O)c2cncc(NC(=O)Cc3nc(C4CC4)oc3C3CC3)c2)c2cnccc21 [Example 20, 2-(2,5-dicyclopropyl-1,3-oxazol-4-yl)-N-(5-{[1-(propan-2-yl)-1H-pyrrolo[3,2-c]pyridin-3-yl]carbonyl}pyridin-3-yl)acetamide] | 31.7 nM
CC(C)n1cc(C(=O)c2cncc(NC(=O)Cn3ccc(C(F)(F)F)n3)c2)c2cnccc21 [Example 21, N-(5-{[1-(propan-2-yl)-1H-pyrrolo[3,2-c]pyridin-3-yl]carbonyl}pyridin-3-yl)-2-[3-(trifluoromethyl)-1H-pyrazol-1-yl]acetamide] | 27.1 nM
CC(C)n1cc(C(=O)c2cncc(NC(=O)Cc3ccc(Cl)cn3)c2)c2cnccc21 [Example 22, 2-(5-chloropyridin-2-yl)-N-(5-{[1-(propan-2-yl)-1H-pyrrolo[3,2-c]pyridin-3-yl]carbonyl}pyridin-3-yl)acetamide] | 9.64 nM
CC(C)n1cc(C(=O)c2cncc(NC(=O)Cc3ccc(F)cn3)c2)c2cnccc21 [Example 23, 2-(5-fluoropyridin-2-yl)-N-(5-{[1-(propan-2-yl)-1H-pyrrolo[3,2-c]pyridin-3-yl]carbonyl}pyridin-3-yl)acetamide] | 192 nM
Cc1nc(CC(=O)Nc2cncc(C(=O)c3cn(C(C)C)c4ccncc34)c2)c(C2CC2)o1 [Example 24, 2-(5-cyclopropyl-2-methyl-1,3-oxazol-4-yl)-N-(5-{[1-(propan-2-yl)-1H-pyrrolo[3,2-c]pyridin-3-yl]carbonyl}pyridin-3-yl)acetamide] | 124 nM
Cc1cnn(CC(=O)Nc2cncc(C(=O)c3cn(C(C)C)c4ccncc34)c2)c1 [Example 25, 2-(4-methyl-1H-pyrazol-1-yl)-N-(5-{[1-(propan-2-yl)-1H-pyrrolo[3,2-c]pyridin-3-yl]carbonyl}pyridin-3-yl)acetamide] | 21.4 nM
CC(C)n1cc(C(=O)c2cncc(NC(=O)Cn3ccc(C4CC4)n3)c2)c2cnccc21 [Example 26, 2-(3-cyclopropyl-1H-pyrazol-1-yl)-N-(5-{[1-(propan-2-yl)-1H-pyrrolo[3,2-c]pyridin-3-yl]carbonyl}pyridin-3-yl)acetamide] | 108 nM
